Data taken from patent US9133158B2, “Bicyclic dihydroisoquinoline-1-one derivatives” (Hoffmann-La Roche Inc., priority 2011, dated 2015).

Target: T1, human CYP11B2 (Homo sapiens, UniProt P19099)
T1 construct: expressed in transfected cells
T1 sequence (P19099 25-503): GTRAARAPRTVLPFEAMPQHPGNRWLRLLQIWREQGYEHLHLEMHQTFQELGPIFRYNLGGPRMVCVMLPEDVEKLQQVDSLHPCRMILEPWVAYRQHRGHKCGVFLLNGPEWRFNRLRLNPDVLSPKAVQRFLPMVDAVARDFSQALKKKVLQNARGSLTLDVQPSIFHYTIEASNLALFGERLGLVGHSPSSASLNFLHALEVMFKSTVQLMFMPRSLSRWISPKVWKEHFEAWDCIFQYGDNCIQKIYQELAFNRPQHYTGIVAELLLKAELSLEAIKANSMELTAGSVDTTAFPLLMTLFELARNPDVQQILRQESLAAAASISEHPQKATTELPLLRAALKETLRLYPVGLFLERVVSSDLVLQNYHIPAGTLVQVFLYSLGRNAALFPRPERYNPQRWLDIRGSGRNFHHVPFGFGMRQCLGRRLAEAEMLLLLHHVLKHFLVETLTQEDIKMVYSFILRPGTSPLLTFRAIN
Experiment: G-402 cellular enzyme assay, human CYP11B2 (aldosterone release, HTRF)
Type: cell-based
Conditions: G-402 cells, 1 μM Deoxycorticosterone
Text: Herein we identified the use of the G-402 cell line as a host cell to ectopically express (transiently or stably) enzymes of the CYP11 family. Specifically we developed stable G-402 cells expressing ectopically human CYP11B1, human CYP11B2, human CYP11A1, cynmolgus CYP11B1 or cynomolgus CYP11B2 enzyme activity. Importantly the identified cell line G-402 expresses co-factors (adrenodoxin and adrenodoxin reductase) important for the activity of the CYP11 family and no relevant enzyme activity of the CYP11 family (in comparison to H295R cells) was detected in these cells. Therefore the G-402 cell line is uniquely suited as a host cell for the ectopic expression of enzymes from the CYP11 family.
G-402 cells can be obtained from ATCC(CRL-1440) and were originally derived from a renal leiomyoblastoma.
The expression plasmids contain the ORF for either human/cyno CYP11B1 or CYP11B2 under the control of a suitable promoter (CMV-promoter) and a suitable resistance marker (neomycin). Using standard techniques the expression plasmid is transfected into G-402 cells and these cells are then selected for expressing the given resistance markers. Individual cell-clones are then selected and assessed for displaying the desired enzymatic activity using 11-Deoxycorticosterone (Cyp11B2) or 11-Deoxycortisol (Cyp11B1) as a substrate.
G-402 cells expressing CYP11 constructs were established as described above and maintained in McCoy's 5a Medium Modified, ATCC Catalog No. 30-2007 containing 10% FCS and 400 μg/ml G418 (Geneticin) at 37° C. under an atmosphere of 5% CO2/95% air.
Cellular enzyme assays were performed in DMEM/F12 medium containing 2.5% charcoal treated FCS and appropriate concentration of substrate (0.3-10 uM 11-Deoxycorticosterone, 11-Deoxycortisol or Corticosterone). For assaying enzymatic activity, cells were plated onto 96 well plates and incubated for 16 h. An aliquot of the supernatant is then transferred and analyzed for the concentration of the expected product (Aldosterone for CYP11B2; Cortisol for CYP11B1). The concentrations of these steroids can be determined using HTRF assays from CisBio analyzing either Aldosterone or Cortisol.
Inhibition of the release of produced steroids can be used as a measure of the respective enzyme inhibition by test compounds added during the cellular enzyme assay. The dose dependent inhibition of enzymatic activity by a compound is calculated by means of plotting added inhibitor concentrations (x-axes) vs. measured steroid/product level (y-axes). The inhibition is then calculated by fitting the following 4-parameter sigmoidal function (Morgan-Mercer-Flodin (MMF) model) to the raw data points using the least squares method:
[formula] wherein, A is the maximum y value, B is the EC50 factor determined using XLFit, C is the minimum y value and D is the slope value.
EC50 values for compounds claimed herein were tested with the G402-based assay system described. Cyp11B2 enzyme activity was tested in presence of 1 μM Deoxycorticosterone and variable amounts of inhibitors; Cyp11B1 enzyme activity was tested in presence of 1 μM Deoxycortisol and variable amounts of inhibitors.

Row | EC50 [µM] | SMILES
1 | 0.195 | CC[C@H]1c2cc(Cl)ccc2C(=O)N1c1cncc2c1CC[C@@H]2NS(C)(=O)=O (single isomer, unassigned) [Example 370, N-[(S or R)-4-((S or R)-5-Chloro-3-ethyl-1-oxo-1,3-dihydro-isoindol-2-yl)-6,7-dihydro-5H-[2]pyrindin-7-yl]-methanesulfonamide]
2 | 1.8 | CN1CCN(Cc2ccncc2N2CCc3cc(Cl)ccc3C2=O)CC1 [Example 280, 6-Chloro-2-[4-(4-methyl-piperazin-1-ylmethyl)-pyridin-3-yl]-3,4-dihydro-2H-isoquinolin-1-one]
3 | 1.08 | CS(=O)(=O)Nc1cncc(N2CCc3cc(Cl)ccc3C2=O)c1 [Example 220, N-[5-(6-Chloro-1-oxo-3,4-dihydro-1H-isoquinolin-2-yl)-pyridin-3-yl]-methanesulfonamide]
4 | 13.8 | CS(=O)(=O)NC1CCc2c1cncc2N1Cc2cc(Cl)ccc2C1=O (single isomer, unassigned) [Example 335, N-[(S or R)-4-(5-Chloro-1-oxo-1,3-dihydro-isoindol-2-yl)-6,7-dihydro-5H-[2]pyrindin-7-yl]-methanesulfonamide]
5 | 2.55 | CCC(=O)Nc1cncc(N2CCc3cc(Cl)ccc3C2=O)c1 [Example 225, N-[5-(6-Chloro-1-oxo-3,4-dihydro-1H-isoquinolin-2-yl)-pyridin-3-yl]-propionamide]
6 | > 30 | CS(=O)(=O)NC1CCc2c1cncc2N1CCc2cc(Cl)ccc2C1=O (single isomer, unassigned) [Example 330, N-[(S or R)-4-(6-Chloro-1-oxo-3,4-dihydro-1H-isoquinolin-2-yl)-6,7-dihydro-5H-[2]pyrindin-7-yl]-methanesulfonamide]
7 | 8.03 | CC(=O)NC1CCCc2c1cncc2N1CCc2cc(Cl)ccc2C1=O (single isomer, unassigned) [Example 320, N-((R or S)-6-Chloro-1-oxo-3,4,5′,6′,7′,8′-hexahydro-1H-[2,4′]biisoquinolinyl-8′-yl)-acetamide]
8 | > 30 | CC(=O)NC1CCc2c1cncc2N1Cc2cc(Cl)ccc2C1=O (single isomer, unassigned; (-)) [Example 318, (−)-N—[(S or R)-4-(5-Chloro-1-oxo-1,3-dihydro-isoindol-2-yl)-6,7-dihydro-5H-[2]pyrindin-7-yl]-acetamide]
9 | 0.935 | CC(O)c1c(F)cncc1N1CCc2cc(Cl)ccc2C1=O (stereo not drawn) [Example 62, 6-Chloro-2-[5-fluoro-4-(l-hydroxy-ethyl)-pyridin-3-yl]-3,4-dihydro-2H-isoquinolin-1-one]
10 | 2.06 | Cn1cnnc1-c1cncc(N2CCc3cc(Cl)ccc3C2=O)c1 [Example 58, 6-Chloro-2-[5-(4-methyl-4H-[1,2,4]triazol-3-yl)-pyridin-3-yl]-3,4-dihydro-2H-isoquinolin-1-one]
11 | 0.212 | O=c1c2ccc(Cl)cc2ccn1-c1cncc(F)c1 [Example 54, 6-Chloro-2-(5-fluoro-pyridin-3-yl)-2H-isoquinolin-1-one]
12 | 24.3 | CCS(=O)(=O)NC1CCc2c1cncc2N1Cc2cc(Cl)ccc2C1=O (single isomer, unassigned) [Example 337, Ethanesulfonic acid [(S or R)-4-(5-chloro-1-oxo-1,3-dihydro-isoindol-2-yl)-6,7-dihydro-5H-[2]pyrindin-7-yl]-amide]
13 | 4.21 | CC(C)(Nc1cncc(N2CCc3cc(Cl)ccc3C2=O)c1)C(=O)O [Example 227, 2-[5-(6-Chloro-1-oxo-3,4-dihydro-1H-isoquinolin-2-yl)-pyridin-3-ylamino]-2-methyl-propionic acid]
14 | 4.26 | CC(=O)N[C@H]1CCCc2c1cncc2N1C(=O)c2ccc(Cl)cc2[C@@H]1C1CC1 (single isomer, unassigned) [Example 371, N-[(S or R)-4-((S or R)-5-Chloro-3-cyclopropyl-1-oxo-1,3-dihydro-isoindol-2-yl)-5,6,7,8-tetrahydro-isoquinolin-8-yl]-acetamide]
15 | 0.774 | CN(C)C(=O)COc1cncc(N2CCc3cc(Cl)ccc3C2=O)c1 [Example 256, 2-[5-(6-Chloro-1-oxo-3,4-dihydro-1H-isoquinolin-2-yl)-pyridin-3-yloxy]-N,N-dimethyl-acetamide]
16 | 1.23 | CC1Cc2cc(Cl)ccc2C(=O)N1c1cncnc1 (stereo not drawn) [Example 90, 6-Chloro-3-methyl-2-pyrimidin-5-yl-3,4-dihydro-2H-isoquinolin-1-one]
17 | 0.395 | C[C@@H]1Cc2cc(Cl)ccc2C(=O)N1c1cccnc1 [Example 91, (R)-6-Chloro-3-methyl-2-pyridin-3-yl-3,4-dihydro-2H-isoquinolin-1-one]
18 | > 30 | CC(=O)N[C@H]1CCCc2c1cncc2N1C(=O)c2ccc(Cl)cc2[C@H]1C1CC1 (single isomer, unassigned) [Example 373, N-[(S or R)-4-((R or S)-5-Chloro-3-cyclopropyl-1-oxo-1,3-dihydro-isoindol-2-yl)-5,6,7,8-tetrahydro-isoquinolin-8-yl]-acetamide]
19 | 2.68 | O=C1c2ccc(Cl)cc2CCN1c1cncnc1 [Example 51, 6-Chloro-2-pyrimidin-5-yl-3,4-dihydro-2H-isoquinolin-1-one]
20 | > 30 | CCC(=O)NC1CCc2c1cncc2N1Cc2cc(Cl)ccc2C1=O (single isomer, unassigned) [Example 338, N-[(S or R)-4-(5-Chloro-1-oxo-1,3-dihydro-isoindol-2-yl)-6,7-dihydro-5H-[2]pyrindin-7-yl]-propionamide]
21 | 0.449 | N#Cc1ccncc1N1CCc2cc(Cl)ccc2C1=O [Example 74, 3-(6-Chloro-1-oxo-3,4-dihydro-1H-isoquinolin-2-yl)-isonicotinonitrile]
22 | 14.8 | CC(=O)NC1CCc2c1cncc2N1CCc2cc(Cl)ccc2C1=O (single isomer, unassigned) [Example 332, N-[(R or S)-4-(6-Chloro-1-oxo-3,4-dihydro-1H-isoquinolin-2-yl)-6,7-dihydro-5H-[2]pyrindin-7-yl]-acetamide]
23 | 2.06 | COc1ccc2c(c1)CCN(c1cccnc1)C2=O [Example 94, 6-Methoxy-2-pyridin-3-yl-3,4 dihydro-2H-isoquinolin-1-one]
24 | 0.354 | CC(=O)N[C@@H]1CCCc2c1cncc2N1C(=O)c2ccc(Cl)cc2[C@@H]1C1CC1 (single isomer, unassigned) [Example 374, N-[(R or S)-4-((S or R)-5-Chloro-3-cyclopropyl-1-oxo-1,3-dihydro-isoindol-2-yl)-5,6,7,8-tetrahydro-isoquinolin-8-yl]-acetamide]
25 | 0.761 | CC1Cc2cc(Cl)ccc2C(=O)N1c1cccnc1 (stereo not drawn) [Example 88, 6-Chloro-3-methyl-2-pyridin-3-yl-3,4-dihydro-2H-isoquinolin-1-one]
26 | 5.62 | CCC(=O)N[C@@H]1CCc2c1cncc2N1C(=O)c2ccc(Cl)cc2[C@@H]1C (single isomer, unassigned) [Example 375, N-[(R or S)-4-((S or R)-5-Chloro-3-methyl-1-oxo-1,3-dihydro-isoindol-2-yl)-6,7-dihydro-5H-[2]pyrindin-7-yl]-propionamide]
27 | 3.66 | CCC(=O)N[C@H]1CCCc2c1cncc2N1C(=O)c2ccc(Cl)cc2[C@@H]1CC (single isomer, unassigned) [Example 351, N-[(S or R)-4-((S or R)-5-Chloro-3-ethyl-1-oxo-1,3-dihydro-isoindol-2-yl)-5,6,7,8-tetrahydro-isoquinolin-8-yl]-propionamide]
